Test results reported in ChEMBL document CHEMBL3991601, “The target landscape of clinical kinase drugs” (Science, 2017).
The source made the active and inactive calls. Rule as the data show it, for most assays here: actives have a measured Kd and inactives only a lower limit.

Experiments:
[1] = target: T1, Bone morphogenetic protein receptor type-2 (Homo sapiens, UniProt Q13873)
T1 sequence (Q13873 whole entry): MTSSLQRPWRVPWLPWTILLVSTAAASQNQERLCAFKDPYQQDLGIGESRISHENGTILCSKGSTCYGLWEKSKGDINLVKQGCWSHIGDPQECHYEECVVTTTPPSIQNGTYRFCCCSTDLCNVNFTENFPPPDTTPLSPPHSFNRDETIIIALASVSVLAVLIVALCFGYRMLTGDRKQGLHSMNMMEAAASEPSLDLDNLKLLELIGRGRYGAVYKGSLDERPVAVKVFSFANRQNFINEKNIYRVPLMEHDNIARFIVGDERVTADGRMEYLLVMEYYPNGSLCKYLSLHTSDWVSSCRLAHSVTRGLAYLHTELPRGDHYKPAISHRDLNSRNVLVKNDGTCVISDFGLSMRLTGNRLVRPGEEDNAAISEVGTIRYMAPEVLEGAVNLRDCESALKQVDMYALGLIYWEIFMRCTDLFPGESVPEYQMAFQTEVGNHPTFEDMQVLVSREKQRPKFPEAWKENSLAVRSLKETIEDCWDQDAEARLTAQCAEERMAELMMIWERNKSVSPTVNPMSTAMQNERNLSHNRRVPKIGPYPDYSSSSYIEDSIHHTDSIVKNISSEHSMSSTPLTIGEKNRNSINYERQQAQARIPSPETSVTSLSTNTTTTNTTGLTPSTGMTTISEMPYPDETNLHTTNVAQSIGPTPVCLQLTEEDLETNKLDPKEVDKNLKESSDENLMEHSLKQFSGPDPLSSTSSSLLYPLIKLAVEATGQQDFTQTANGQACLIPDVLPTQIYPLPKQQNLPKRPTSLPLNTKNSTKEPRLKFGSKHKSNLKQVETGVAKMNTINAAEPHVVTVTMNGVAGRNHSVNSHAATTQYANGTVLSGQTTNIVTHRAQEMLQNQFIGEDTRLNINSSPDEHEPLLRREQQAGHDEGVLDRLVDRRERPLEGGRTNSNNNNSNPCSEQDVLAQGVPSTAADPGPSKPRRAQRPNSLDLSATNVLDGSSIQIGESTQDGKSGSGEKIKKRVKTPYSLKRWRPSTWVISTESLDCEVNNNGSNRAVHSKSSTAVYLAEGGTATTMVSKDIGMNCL

[2] = target: Casein kinase I isoform epsilon (Homo sapiens, UniProt P49674)
[3] = target: T2, ATP-dependent RNA helicase DDX1 (Homo sapiens, UniProt Q92499)
T2 sequence (Q92499 whole entry): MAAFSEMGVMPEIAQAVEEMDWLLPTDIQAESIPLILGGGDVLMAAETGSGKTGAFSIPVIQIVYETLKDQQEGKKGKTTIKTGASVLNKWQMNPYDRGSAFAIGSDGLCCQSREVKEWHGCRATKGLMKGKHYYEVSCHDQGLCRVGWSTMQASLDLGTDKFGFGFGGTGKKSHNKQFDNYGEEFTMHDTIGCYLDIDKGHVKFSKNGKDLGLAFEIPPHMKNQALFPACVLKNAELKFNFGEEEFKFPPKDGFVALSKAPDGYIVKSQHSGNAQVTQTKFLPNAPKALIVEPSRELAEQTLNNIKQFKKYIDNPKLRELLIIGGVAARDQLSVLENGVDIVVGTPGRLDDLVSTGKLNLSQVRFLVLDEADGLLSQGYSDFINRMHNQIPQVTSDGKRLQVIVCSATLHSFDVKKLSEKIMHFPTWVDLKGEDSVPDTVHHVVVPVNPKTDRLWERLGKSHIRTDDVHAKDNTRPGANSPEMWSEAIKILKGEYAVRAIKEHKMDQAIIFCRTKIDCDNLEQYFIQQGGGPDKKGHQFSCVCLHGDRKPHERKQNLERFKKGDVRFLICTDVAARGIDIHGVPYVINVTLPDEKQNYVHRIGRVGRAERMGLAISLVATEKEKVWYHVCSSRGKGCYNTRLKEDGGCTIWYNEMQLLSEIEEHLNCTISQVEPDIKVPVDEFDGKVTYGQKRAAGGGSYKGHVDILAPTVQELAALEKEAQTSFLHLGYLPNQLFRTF

[4] = target: T3, Serine/threonine-protein kinase TAO1 (Homo sapiens, UniProt Q7L7X3)
T3 sequence (Q7L7X3 whole entry): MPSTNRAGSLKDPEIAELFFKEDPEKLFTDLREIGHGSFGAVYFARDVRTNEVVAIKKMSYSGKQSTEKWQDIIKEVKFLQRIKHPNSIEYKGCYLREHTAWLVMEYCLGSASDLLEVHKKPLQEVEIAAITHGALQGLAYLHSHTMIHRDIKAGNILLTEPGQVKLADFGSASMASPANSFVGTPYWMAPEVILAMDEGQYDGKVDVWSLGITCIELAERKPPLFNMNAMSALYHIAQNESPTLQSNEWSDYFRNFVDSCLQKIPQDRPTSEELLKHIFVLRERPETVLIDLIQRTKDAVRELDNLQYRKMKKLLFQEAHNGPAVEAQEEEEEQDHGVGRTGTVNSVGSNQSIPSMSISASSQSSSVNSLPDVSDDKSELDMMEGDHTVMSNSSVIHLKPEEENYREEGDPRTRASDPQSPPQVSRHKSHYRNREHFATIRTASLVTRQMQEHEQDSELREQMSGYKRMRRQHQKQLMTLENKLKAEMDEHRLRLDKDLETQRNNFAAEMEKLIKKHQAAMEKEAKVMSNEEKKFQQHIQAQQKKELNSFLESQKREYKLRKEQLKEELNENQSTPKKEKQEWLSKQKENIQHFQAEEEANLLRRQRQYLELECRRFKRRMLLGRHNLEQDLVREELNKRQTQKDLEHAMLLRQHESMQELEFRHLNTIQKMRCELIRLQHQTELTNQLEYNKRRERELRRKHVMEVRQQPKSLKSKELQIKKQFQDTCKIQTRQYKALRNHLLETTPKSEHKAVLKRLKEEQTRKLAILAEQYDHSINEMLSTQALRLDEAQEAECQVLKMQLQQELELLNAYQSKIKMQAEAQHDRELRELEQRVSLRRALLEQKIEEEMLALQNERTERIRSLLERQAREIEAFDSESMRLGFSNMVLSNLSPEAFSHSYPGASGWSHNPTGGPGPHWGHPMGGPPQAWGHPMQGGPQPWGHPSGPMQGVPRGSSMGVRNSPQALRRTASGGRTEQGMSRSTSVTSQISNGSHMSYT

[5] = target: cAMP-dependent protein kinase catalytic subunit gamma (Homo sapiens, UniProt P22612)

Measured: Kd
Also: in the data inactive means no Kd found up to 30 µM.

Sequence of Casein kinase I isoform epsilon (P49674 whole entry, canonical isoform): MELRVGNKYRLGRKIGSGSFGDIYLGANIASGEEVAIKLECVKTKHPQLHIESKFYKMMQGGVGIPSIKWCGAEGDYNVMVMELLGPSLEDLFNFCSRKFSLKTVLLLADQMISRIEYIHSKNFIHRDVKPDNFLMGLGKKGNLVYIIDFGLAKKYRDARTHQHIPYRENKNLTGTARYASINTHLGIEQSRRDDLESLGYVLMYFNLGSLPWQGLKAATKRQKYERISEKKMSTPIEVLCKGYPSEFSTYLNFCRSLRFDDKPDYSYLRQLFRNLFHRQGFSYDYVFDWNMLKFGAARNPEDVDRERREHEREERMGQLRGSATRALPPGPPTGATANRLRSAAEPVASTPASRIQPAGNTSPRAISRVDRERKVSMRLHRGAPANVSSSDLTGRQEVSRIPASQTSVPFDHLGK
Sequence of cAMP-dependent protein kinase catalytic subunit gamma (P22612 whole entry): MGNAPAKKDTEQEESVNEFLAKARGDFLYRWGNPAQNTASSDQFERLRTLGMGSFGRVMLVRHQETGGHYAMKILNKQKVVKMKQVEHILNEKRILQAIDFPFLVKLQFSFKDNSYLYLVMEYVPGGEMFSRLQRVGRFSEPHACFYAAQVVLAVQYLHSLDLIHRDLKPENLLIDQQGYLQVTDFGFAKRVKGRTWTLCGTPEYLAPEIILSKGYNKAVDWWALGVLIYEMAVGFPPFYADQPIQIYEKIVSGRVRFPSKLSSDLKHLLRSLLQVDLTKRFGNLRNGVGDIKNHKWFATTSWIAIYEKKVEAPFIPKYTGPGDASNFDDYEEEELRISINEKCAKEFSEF

O=C(Nc1ccc(OC(F)(F)F)cc1)c1sccc1NCc1ccnc2ccccc12 [OSI-930]
inactive: [1] > 30 µM | [2] > 30 µM | [3] > 30 µM | [4] > 30 µM

CN(c1ncccc1CNc1nc(Nc2ccc3c(c2)CC(=O)N3)ncc1C(F)(F)F)S(C)(=O)=O [PF-00562271]
inactive: [1] > 30 µM | [2] > 30 µM | [3] > 30 µM | [5] > 30 µM

CNC(=O)c1cccc(-c2ccc3c(N4CCOC[C@@H]4C)nc(N4CCOC[C@@H]4C)nc3n2)c1 [VISTUSERTIB]
inactive: [1] > 30 µM | [2] > 30 µM | [3] > 30 µM | [4] > 30 µM

C=CCn1c(=O)c2cnc(Nc3ccc(N4CCN(C)CC4)cc3)nc2n1-c1cccc(C(C)(C)O)n1 [ADAVOSERTIB]
inactive: [1] > 30 µM | [2] > 30 µM | [3] > 30 µM | [5] > 30 µM

COc1cc2c(Oc3ccc4[nH]c(C)cc4c3F)ncnc2cc1OCCCN1CCCC1 [CEDIRANIB]
inactive: [3] > 30 µM

Cn1c(=O)c(F)c(Nc2ccc(I)cc2F)c2c(=O)n(C[C@@H](O)CO)cnc21 [TAK-733]
inactive: [1] > 30 µM | [2] > 30 µM | [3] > 30 µM | [4] > 30 µM

N#CCNC(=O)c1ccc(-c2ccnc(Nc3ccc(N4CCOCC4)cc3)n2)cc1 [MOMELOTINIB]
inactive: [1] > 30 µM | [2] > 30 µM | [3] > 30 µM | [4] > 30 µM

CC1(C)CNc2cc(NC(=O)c3cccnc3NCc3ccncc3)ccc21 [MOTESANIB]
inactive: [3] > 30 µM

NC[C@@](O)(c1ccc(Cl)cc1)c1ccc(-c2cn[nH]c2)cc1 [AT-13148]
inactive: [1] > 30 µM | [2] > 30 µM | [3] > 30 µM | [4] > 30 µM

C=CCN(/C=C1/C(=O)O[C@H](COC)[C@@]2(C)C1=C(O)C(=O)C1=C2[C@H](OC(C)=O)C[C@]2(C)C(=O)CC[C@@H]12)CC=C [SONOLISIB]
inactive: [1] > 30 µM | [2] > 30 µM | [4] > 30 µM
0.007 µM: [5]

Cc1ccc(C(=O)Nc2ccc(Oc3cc4cnn(C)c4cc3-c3cn[nH]c3)c(F)c2)c(=O)n1-c1ccc(F)cc1 [MERESTINIB]
inactive: [1] > 30 µM | [2] > 30 µM | [3] > 30 µM | [4] > 30 µM

CCOc1ccn(-c2ccc(F)cc2)c(=O)c1C(=O)Nc1ccc(Oc2ccnc(N)c2Cl)c(F)c1 [BMS-777607]
inactive: [2] > 30 µM | [3] > 30 µM | [5] > 30 µM | [4] > 30 µM

O=C(O)c1ccc2c(c1)nc(Nc1cccc(Cl)c1)c1ccncc12 [SILMITASERTIB]
active: [1] 1.06 µM | [4] 2.08 µM
inactive: [2] > 30 µM | [5] > 30 µM

CN(C)C/C=C/C(=O)Nc1cc2c(Nc3ccc(F)c(Cl)c3)ncnc2cc1O[C@H]1CCOC1 [AFATINIB]
inactive: [3] > 30 µM | [5] > 30 µM

COc1cc2ncnc(Nc3ccc(F)c(Cl)c3)c2cc1NC(=O)/C=C/CN1CCCCC1 [DACOMITINIB ANHYDROUS]
inactive: [1] > 30 µM | [2] > 30 µM | [3] > 30 µM | [4] > 30 µM

S=C(NCc1ccc2c(c1)OCO2)N1CCN(c2ncnc3c2oc2ccccc23)CC1 [AMUVATINIB]
inactive: [1] > 30 µM | [2] > 30 µM | [3] > 30 µM | [4] > 30 µM

CCc1nc(C(N)=O)c(Nc2ccc(N3CCC(N4CCN(C)CC4)CC3)c(OC)c2)nc1NC1CCOCC1 [GILTERITINIB]
inactive: [1] > 30 µM | [2] > 30 µM | [5] > 30 µM | [4] > 30 µM

Cn1cnc2c(F)c(Nc3ccc(Br)cc3Cl)c(C(=O)NOCCO)cc21 [SELUMETINIB]
inactive: [3] > 30 µM

C#Cc1cccc(Nc2ncnc3cc4c(cc23)OCCOCCOCCO4)c1 [ICOTINIB]
inactive: [1] > 30 µM | [2] > 30 µM | [3] > 30 µM | [4] > 30 µM

Cn1c(=O)n(-c2ccc(C(C)(C)C#N)cc2)c2c3cc(-c4cnc5ccccc5c4)ccc3ncc21 [DACTOLISIB]
inactive: [1] > 30 µM | [2] > 30 µM | [3] > 30 µM | [5] > 30 µM

COc1cc2c(N3CCN(C(=O)Nc4ccc(OC(C)C)cc4)CC3)ncnc2cc1OCCCN1CCCCC1 [TANDUTINIB]
inactive: [3] > 30 µM | [5] > 30 µM

O=S(=O)(c1cccc2cnccc12)N1CCCNCC1 [FASUDIL]
inactive: [1] > 30 µM | [2] > 30 µM | [3] > 30 µM

CCN(CCCOc1ccc2c(Nc3cc(CC(=O)Nc4cccc(F)c4)n[nH]3)ncnc2c1)CCOP(=O)(O)O [BARASERTIB]
inactive: [1] > 30 µM | [2] > 30 µM | [3] > 30 µM | [5] > 30 µM

CCN1CCN(Cc2ccc(Nc3ncc(F)c(-c4cc(F)c5nc(C)n(C(C)C)c5c4)n3)nc2)CC1 [ABEMACICLIB]
inactive: [1] > 30 µM | [2] > 30 µM | [3] > 30 µM | [5] > 30 µM

C[C@@]1(C(=O)Nc2ccc(F)nc2)CCCN1c1nc(Nc2cc(C3CC3)n[nH]2)c2cccn2n1 [BMS-754807]
inactive: [3] > 30 µM | [5] > 30 µM

CN1CCN(c2nc(C3=C(c4c[nH]c5ccccc45)C(=O)NC3=O)c3ccccc3n2)CC1 [SOTRASTAURIN]
inactive: [1] > 30 µM | [2] > 30 µM | [3] > 30 µM | [5] > 30 µM

O=c1[nH]c([C@@H]2CCCN2)nc2c1oc1ccc(Cl)cc12
inactive: [1] > 30 µM | [2] > 30 µM | [4] > 30 µM

C[C@]1(O)C[C@@H](c2nc(-c3ccc4ccc(-c5ccccc5)nc4c3)c3c(N)nccn32)C1 [LINSITINIB]
inactive: [1] > 30 µM | [2] > 30 µM | [3] > 30 µM | [5] > 30 µM
